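How tested: cells in 96-well plates exposed to compound for 48 hours at five concentrations. The concentration for 50% growth inhibition is given as GI50.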 Calls of active or inactive are those of the source. Rule as the data show it: active = GI50 up to about 1.1 µM and inactive = higher.

Some test systems named below: 786-0; IGROV-1; MDA-MB-435; CCRF-CEM; K562; LOX IMVI; SF-268; UO-31; UACC-62; SK-MEL-5; CAKI-1; MDA-N; NCI-H522; MOLT-4; A549; KM12; SW-620; OVCAR-3; RPMI-8226.
Holding throughout (assay): NCI tumour cell line growth inhibition, 48 h

As for `O=C(c1ccccc1)c1sc2c(=O)c(C(=O)c3ccccc3)c(C(=O)c3ccccc3)sc2c(=O)c1C(=O)c1ccccc1`, the GI50 in the experiment with 786-0 is 32.1 µM (inactive); in the experiment on IGROV-1, 15.6 µM (inactive); with MDA-MB-435, 27.1 µM (inactive); in the experiment on CCRF-CEM, 23.8 µM (inactive); in the experiment on K562, 15.9 µM (inactive); with LOX IMVI, 25.1 µM (inactive). Moreover, the GI50 in the experiment with SF-268 was 46.7 µM (inactive); in the experiment with UO-31, 5.97 µM (inactive); in the experiment on UACC-62, > 100 µM (inactive); with SK-MEL-5, 32 µM (inactive); in the experiment with CAKI-1, 18.9 µM (inactive); with MDA-N, 32.2 µM (inactive). Also, the GI50 is 18 µM (inactive) with NCI-H522; 20.7 µM (inactive) in the experiment with MOLT-4; > 100 µM (inactive) in the experiment with A549; > 100 µM (inactive) in the experiment on KM12; 21.8 µM (inactive) in the experiment with SW-620; 98.6 µM (inactive) in the experiment on OVCAR-3.
For `Cc1c(Cl)nc(Nc2nc3ccccc3[nH]2)nc1Cl`, the GI50 in the experiment on 786-0 is 59.4 µM (inactive); in the experiment with IGROV-1, 36.2 µM (inactive); in the experiment with MDA-MB-435, > 100 µM (inactive); with K562, > 100 µM (inactive); in the experiment on SF-268 it was 47.6 µM (inactive); in the experiment with UO-31 it was > 100 µM (inactive). Further, the GI50 in the experiment with UACC-62 was > 100 µM (inactive); with SK-MEL-5, > 100 µM (inactive); with CAKI-1, 6.71 µM (inactive); with RPMI-8226, > 100 µM (inactive); in the experiment with MDA-N, > 100 µM (inactive); in the experiment on NCI-H522, 89.5 µM (inactive). Moreover, the GI50 in the experiment with MOLT-4 was > 100 µM (inactive); in the experiment on A549 it was > 100 µM (inactive); with KM12, 17.1 µM (inactive); in the experiment on SW-620 it was 31.2 µM (inactive).
`OCC1OC(n2cnc3cccnc32)CC1O` (configuration not stated): the GI50 in the experiment with 786-0, with IGROV-1, in the experiment with MDA-MB-435, in the experiment with CCRF-CEM, in the experiment on K562 and in the experiment with LOX IMVI was > 100 µM (inactive) in each case. Also, the GI50 in the experiment on SF-268, in the experiment with UO-31, in the experiment on UACC-62, with SK-MEL-5, in the experiment with CAKI-1 and in the experiment with MDA-N was > 100 µM (inactive) in each case. The GI50 in the experiment with NCI-H522, in the experiment with MOLT-4, in the experiment with A549, in the experiment with KM12, in the experiment with SW-620 and in the experiment with OVCAR-3 was > 100 µM (inactive) throughout.
Take `c1ccc(C(Oc2noc3ccccc23)c2ccccc2)cc1`: the GI50 in the experiment with 786-0 is 48.8 µM (inactive); in the experiment on IGROV-1, 49.9 µM (inactive); in the experiment with MDA-MB-435, 20.3 µM (inactive); in the experiment with CCRF-CEM, 15.9 µM (inactive); in the experiment with K562, 23.8 µM (inactive); with LOX IMVI, 38.7 µM (inactive). Besides, the GI50 was 65.8 µM (inactive) with SF-268; 39.5 µM (inactive) in the experiment with UO-31; 31.8 µM (inactive) in the experiment with UACC-62; 18.7 µM (inactive) with SK-MEL-5; 62.2 µM (inactive) with CAKI-1; 19.9 µM (inactive) in the experiment with MDA-N. Further, the GI50 in the experiment with NCI-H522 was 26.1 µM (inactive); in the experiment on MOLT-4, 14.8 µM (inactive); with A549 it was 39.5 µM (inactive); with KM12 it was 29.1 µM (inactive); in the experiment with SW-620, 30.8 µM (inactive); with OVCAR-3, 35.2 µM (inactive).
As for `NC(Cc1c2ccccc2cc2ccccc12)C(=O)O` (configuration not stated), the GI50 was > 100 µM (inactive) with 786-0; 48.3 µM (inactive) with IGROV-1; > 100 µM (inactive) with MDA-MB-435; 94.8 µM (inactive) in the experiment on CCRF-CEM; > 100 µM (inactive) in the experiment with K562; > 100 µM (inactive) in the experiment with LOX IMVI. Further, the GI50 is > 100 µM (inactive) in the experiment with SF-268; 78.7 µM (inactive) in the experiment on UO-31; 76.9 µM (inactive) with UACC-62; 47.4 µM (inactive) with SK-MEL-5; 62.2 µM (inactive) with CAKI-1; > 100 µM (inactive) in the experiment on NCI-H522. Besides, the GI50 is 37 µM (inactive) with MOLT-4; > 100 µM (inactive) in the experiment on A549; > 100 µM (inactive) in the experiment on KM12; 70.5 µM (inactive) in the experiment on SW-620; > 100 µM (inactive) with OVCAR-3.
As to `COc1cc2nc(NCCCCCNC(=O)c3ccco3)nc(N)c2cc1OC`, the GI50 is 21.5 µM (inactive) in the experiment on 786-0; 41.1 µM (inactive) in the experiment on IGROV-1; 28.5 µM (inactive) in the experiment on CCRF-CEM; 29.1 µM (inactive) in the experiment on K562; 36.2 µM (inactive) in the experiment on SF-268; > 100 µM (inactive) in the experiment on UO-31. Also, the GI50 with UACC-62 was 22.2 µM (inactive); in the experiment on SK-MEL-5, 19.2 µM (inactive); with CAKI-1, 42.6 µM (inactive); in the experiment with RPMI-8226, 38 µM (inactive); with NCI-H522, 25.4 µM (inactive); with MOLT-4, 24.8 µM (inactive). Besides, the GI50 with A549 was 74.8 µM (inactive); with KM12, 24 µM (inactive); in the experiment with SW-620, 22.5 µM (inactive); in the experiment on OVCAR-3 it was 24.7 µM (inactive).
Turning to `O=C(CCl)N1CCN(c2ccccn2)CC1`, the GI50 in the experiment on 786-0 is 18.4 µM (inactive); in the experiment with IGROV-1 it was 21.3 µM (inactive); with CCRF-CEM it was 19.9 µM (inactive); in the experiment with K562 it was 31.7 µM (inactive); with SF-268, 23.6 µM (inactive); with UO-31, 21.8 µM (inactive). For the same compound, the GI50 with SK-MEL-5 was 18.1 µM (inactive); with CAKI-1, 19.3 µM (inactive); in the experiment on RPMI-8226 it was 31.8 µM (inactive); in the experiment with MDA-N, 25.2 µM (inactive); with MOLT-4, 31.7 µM (inactive); in the experiment with A549 it was > 10 µM (inactive). Moreover, the GI50 with KM12 was 34.5 µM (inactive); in the experiment on SW-620, 23.8 µM (inactive).
`Nc1cccc2nnccc12`: the GI50 with 786-0, with IGROV-1, with MDA-MB-435, in the experiment on CCRF-CEM, in the experiment with SF-268 and with UO-31 was > 100 µM (inactive) each time. Further, the GI50 in the experiment with UACC-62 was > 100 µM (inactive); in the experiment with SK-MEL-5, > 100 µM (inactive); in the experiment with CAKI-1 it was > 100 µM (inactive); with RPMI-8226, > 100 µM (inactive); in the experiment on MDA-N, > 100 µM (inactive); with NCI-H522, 19 µM (inactive). Besides, the GI50 with A549, in the experiment on KM12 and in the experiment on SW-620 was > 100 µM (inactive) throughout.
As to `O=C1N(c2ccccc2)N=C2c3ccncc3C3=NN(c4ccccc4)C(=O)C123` (configuration not stated), the GI50 in the experiment on 786-0 is > 100 µM (inactive); in the experiment on IGROV-1, > 51.9 µM (inactive); in the experiment on MDA-MB-435, 4.36 µM (inactive); in the experiment on CCRF-CEM it was > 40.9 µM (inactive); in the experiment on K562 it was 0.252 µM (active); in the experiment on LOX IMVI it was 0.411 µM (active). Further, the GI50 with UO-31 is 2.35 µM (inactive); in the experiment with UACC-62, 5.57 µM (inactive); in the experiment with SK-MEL-5 it was 7.55 µM (inactive); in the experiment on NCI-H522, > 100 µM (inactive); in the experiment with MOLT-4, 0.504 µM (active); in the experiment with A549 it was > 32.7 µM (inactive). For the same compound, the GI50 in the experiment on KM12 was 0.556 µM (active); in the experiment with SW-620, 2.53 µM (inactive); in the experiment with OVCAR-3, > 100 µM (inactive).
Turning to `O=C(NC(=S)Nc1ccc([N+](=O)[O-])cc1)c1ccc2c(c1)Sc1ccccc1O2`, the GI50 is 44.8 µM (inactive) in the experiment on 786-0; 98.2 µM (inactive) in the experiment on IGROV-1; > 100 µM (inactive) in the experiment with MDA-MB-435; > 100 µM (inactive) in the experiment with CCRF-CEM; > 100 µM (inactive) in the experiment on K562; > 100 µM (inactive) in the experiment with LOX IMVI. The GI50 was 30.2 µM (inactive) in the experiment with SF-268; > 100 µM (inactive) in the experiment on UO-31; 71.3 µM (inactive) with UACC-62; > 100 µM (inactive) in the experiment with SK-MEL-5; > 100 µM (inactive) with CAKI-1; > 100 µM (inactive) in the experiment with MDA-N. For the same compound, the GI50 with NCI-H522 is 48.1 µM (inactive); in the experiment on MOLT-4 it was > 100 µM (inactive); in the experiment with A549, > 100 µM (inactive); in the experiment with KM12, > 100 µM (inactive); in the experiment on SW-620, > 100 µM (inactive); in the experiment with OVCAR-3 it was > 100 µM (inactive).
In the case of `CC(=O)OC(COc1ccc2c(c1)[n+]([O-])nc(N)[n+]2[O-])CN1CCCCC1` (configuration not stated), the GI50 with 786-0 is 9.98 µM (inactive); in the experiment with MDA-MB-435, 36 µM (inactive); in the experiment on CCRF-CEM it was 6.1 µM (inactive); with K562, 7.69 µM (inactive); in the experiment with SF-268, > 10 µM (inactive); with UO-31, 25.3 µM (inactive). In addition, the GI50 in the experiment on SK-MEL-5 is 3.78 µM (inactive); in the experiment with CAKI-1, 17.4 µM (inactive); in the experiment with RPMI-8226 it was 5.58 µM (inactive); in the experiment on NCI-H522, 11.1 µM (inactive); in the experiment on MOLT-4, 2.49 µM (inactive); in the experiment on A549, 15.3 µM (inactive). In addition, the GI50 in the experiment on KM12 was 13.1 µM (inactive); in the experiment on SW-620, 17.1 µM (inactive); in the experiment on OVCAR-3, 13.6 µM (inactive).
Take `Cc1cc(S(N)(=O)=O)c(SCc2nc(N)nc(N(C)C)n2)cc1Cl`: the GI50 in the experiment on 786-0, with IGROV-1, in the experiment on CCRF-CEM, in the experiment with K562, with LOX IMVI and in the experiment on SF-268 was > 10 µM (inactive) throughout. Further, the GI50 in the experiment on UO-31, in the experiment with SK-MEL-5, in the experiment on CAKI-1, in the experiment on RPMI-8226, with MDA-N and with NCI-H522 was > 10 µM (inactive) each time. Also, the GI50 in the experiment on MOLT-4, with A549, in the experiment on KM12, with SW-620 and with OVCAR-3 was > 10 µM (inactive) each time.

(Values after ChEMBL document CHEMBL1201862, “PubChem BioAssay data set” (2004).)
